Test results published in patent US7605280B2, “Anthraquinone and its derivatives” (Biostatus Limited, priority 1998, dated 2009).

Test system: viable HL60 cells
Assay: CLSM analysis of nuclear fluorescence in viable cells
Assay type: cell-based, human
Settings: 10 μM for 1 h
Source text: The system used was a Leica TCS 4D (LaserTechnik Gmbh, Germany) scanner coupled to a Leitz DM R microscope and operating with an Ominchrome argon/krypton laser. The laser provided emission lines at 488, 568 and 647 nm with variable power. Coverslip cultures were washed briefly in PBS, mounted in inverted positions on glass slides, the coverslips being supported at the edges by a piping of petroleum jelly to prevent the cells from being compressed. The slides were examined immediately using ×100 or ×40 oil immersion objective lenses with mid-range pinhole and photomultiplier gain settings. Excitation/emission wavelengths for DRAQ5, fluorescein and rhodamine 123 were 647 nm/>665 nm, 488 nm/>515 nm and 488 nm/>590 nm respectively. Gain settings were adjusted such that the most fluorescent drug-treated sample gave pixel intensities just below saturation. The black level/offset was adjusted to give effectively zero background (<4 for pixel value) after 16× line noise filtration of images for untreated controls. […]
Thus, FIG. 2h to k show simultaneous CLSM capture of transmission (panels h and j) and the corresponding far red/low infra-red fluorescence (panels i and […] respectively) images of viable HL60 cells exposed to either 10 μM DRAQ5 or 10 μM DRAQ5N for 1 h. • 1. […]

CN(C)CCNc1ccc(O)c2c1C(=O)c1c(O)ccc(NCCN(C)C)c1C2=O [DRAQ5]
integrated nuclear fluorescence intensity per nucleus section, DRAQ5 relative to DRAQ5N-treated cells: approximately 10 fold
